Test results from PubChem BioAssay (NCI).
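Method: 48-hour compound exposure of cells in 96-well plates, five concentrations, linear interpolation of endpoints. GI50 = concentration required for 50% inhibition of growth. TGI: total growth inhibition.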

How the values were obtained:
Test in all cases: NCI tumour cell line growth inhibition, 48 h
HT29 colon = tested on: HT29 colon
NCI-H460 lung = tested on: NCI-H460 lung
MDA-MB-231 breast = tested on: MDA-MB-231 breast
U251 CNS = tested on: U251 CNS
SK-MEL-5 melanoma = tested on: SK-MEL-5 melanoma
MOLT-4 leukemia = tested on: MOLT-4 leukemia
A498 renal = tested on: A498 renal
PC-3 prostate = tested on: PC-3 prostate
K-562 leukemia = tested on: K-562 leukemia
M14 melanoma = tested on: M14 melanoma
SNB-19 CNS = tested on: SNB-19 CNS
OVCAR-8 ovarian = tested on: OVCAR-8 ovarian
COLO 205 colon = tested on: COLO 205 colon
SF-268 CNS = tested on: SF-268 CNS
HCT-15 colon = tested on: HCT-15 colon
HL-60(TB) leukemia = tested on: HL-60(TB) leukemia
UACC-62 melanoma = tested on: UACC-62 melanoma
BT-549 breast = tested on: BT-549 breast
SF-539 CNS = tested on: SF-539 CNS
UACC-257 melanoma = tested on: UACC-257 melanoma
LOX IMVI melanoma = tested on: LOX IMVI melanoma
OVCAR-4 ovarian = tested on: OVCAR-4 ovarian
SK-MEL-2 melanoma = tested on: SK-MEL-2 melanoma
TK-10 renal = tested on: TK-10 renal
HS 578T breast = tested on: HS 578T breast
786-0 renal = tested on: 786-0 renal
HCC-2998 colon = tested on: HCC-2998 colon
EKVX NSCLC = tested on: EKVX NSCLC
A549 NSCLC = tested on: A549 NSCLC
OVCAR-5 ovarian = tested on: OVCAR-5 ovarian
SW-620 colon = tested on: SW-620 colon
ACHN renal = tested on: ACHN renal
NCI-H522 lung = tested on: NCI-H522 lung
RXF 393 renal = tested on: RXF 393 renal
MALME-3M melanoma = tested on: MALME-3M melanoma
HOP-62 NSCLC = tested on: HOP-62 NSCLC
CCRF-CEM leukemia = tested on: CCRF-CEM leukemia
OVCAR-3 ovarian = tested on: OVCAR-3 ovarian
DU-145 prostate = tested on: DU-145 prostate
HOP-92 NSCLC = tested on: HOP-92 NSCLC
KM12 colon = tested on: KM12 colon
HCT-116 colon = tested on: HCT-116 colon
MDA-MB-435 = tested on: MDA-MB-435
IGROV1 ovarian = tested on: IGROV1 ovarian
NCI-H226 lung = tested on: NCI-H226 lung
MCF7 breast = tested on: MCF7 breast
SK-MEL-28 melanoma = tested on: SK-MEL-28 melanoma
UO-31 renal = tested on: UO-31 renal
NCI-H23 lung = tested on: NCI-H23 lung
NCI/ADR-RES ovarian = tested on: NCI/ADR-RES ovarian
T-47D breast = tested on: T-47D breast
SN12C renal = tested on: SN12C renal
CAKI-1 renal = tested on: CAKI-1 renal
SNB-75 CNS = tested on: SNB-75 CNS
SF-295 CNS = tested on: SF-295 CNS
SK-OV-3 ovarian = tested on: SK-OV-3 ovarian

`O=C(N=Nc1c(O)[nH]c2ccccc12)c1oc2ccccc2c1CN1CCN(c2ccccc2)CC1` gave a GI50 (HT29 colon) of 4.06 µM, a TGI (HT29 colon) of over 50 µM and a GI50 (NCI-H460 lung) of 1.17 µM. The TGI (NCI-H460 lung) was 2.79 µM, the GI50 (MDA-MB-231 breast) was 1.45 µM and the TGI (MDA-MB-231 breast) was 4.58 µM. It also gave a GI50 (U251 CNS) of 1.97 µM, a TGI (U251 CNS) of 8.67 µM and a GI50 (SK-MEL-5 melanoma) of 1.49 µM. It also gave a TGI (SK-MEL-5 melanoma) of 5.19 µM, a GI50 (MOLT-4 leukemia) of 1.96 µM and a TGI (MOLT-4 leukemia) of over 50 µM. It also gave a GI50 (A498 renal) of 1.56 µM, a TGI (A498 renal) of 8.87 µM and a GI50 (PC-3 prostate) of 1.59 µM. For the same molecule, the TGI (PC-3 prostate) was 7.23 µM, the GI50 (K-562 leukemia) was 1.98 µM and the TGI (K-562 leukemia) was over 50 µM. It also gave a GI50 (M14 melanoma) of 2.07 µM, a TGI (M14 melanoma) of 8.83 µM and a GI50 (SNB-19 CNS) of 1.96 µM. The TGI (SNB-19 CNS) was 8.5 µM, the GI50 (OVCAR-8 ovarian) was 1.66 µM and the TGI (OVCAR-8 ovarian) was 13.4 µM. The GI50 (COLO 205 colon) was 2.77 µM, the TGI (COLO 205 colon) was over 50 µM and the GI50 (SF-268 CNS) was 1.97 µM. The TGI (SF-268 CNS) was 13.8 µM, the GI50 (HCT-15 colon) was 1.64 µM and the TGI (HCT-15 colon) was 10.2 µM. It also gave a GI50 (HL-60(TB) leukemia) of 36.5 µM, a TGI (HL-60(TB) leukemia) of over 50 µM and a GI50 (UACC-62 melanoma) of 2.38 µM. The TGI (UACC-62 melanoma) was 10 µM, the GI50 (BT-549 breast) was 5.81 µM and the TGI (BT-549 breast) was 21 µM. The GI50 (SF-539 CNS) was 2.5 µM, the TGI (SF-539 CNS) was 8.53 µM and the GI50 (UACC-257 melanoma) was 4.03 µM. For the same molecule, the TGI (UACC-257 melanoma) was 28.3 µM, the GI50 (LOX IMVI melanoma) was 2.04 µM and the TGI (LOX IMVI melanoma) was 7.84 µM. It also gave a GI50 (OVCAR-4 ovarian) of 0.725 µM, a TGI (OVCAR-4 ovarian) of 1.46 µM and a GI50 (SK-MEL-2 melanoma) of 5.46 µM. For the same molecule, the TGI (SK-MEL-2 melanoma) was 15.8 µM, the GI50 (TK-10 renal) was 1.05 µM and the TGI (TK-10 renal) was 3.58 µM. For the same molecule, the GI50 (HS 578T breast) was 1.69 µM, the TGI (HS 578T breast) was 10.4 µM and the GI50 (786-0 renal) was 0.865 µM. The TGI (786-0 renal) was 1.84 µM, the GI50 (HCC-2998 colon) was 6.83 µM and the TGI (HCC-2998 colon) was 32 µM. For the same molecule, the GI50 (EKVX NSCLC) was 1.91 µM, the TGI (EKVX NSCLC) was 10.3 µM and the GI50 (A549 NSCLC) was 1.54 µM. It also gave a TGI (A549 NSCLC) of 8.21 µM, a GI50 (OVCAR-5 ovarian) of 2.54 µM and a TGI (OVCAR-5 ovarian) of 11.6 µM. It also gave a GI50 (SW-620 colon) of 1.5 µM, a TGI (SW-620 colon) of 7.47 µM and a GI50 (ACHN renal) of 1.02 µM. The TGI (ACHN renal) was 2.53 µM, the GI50 (NCI-H522 lung) was 3.58 µM and the TGI (NCI-H522 lung) was 19.3 µM. The GI50 (RXF 393 renal) was 1.01 µM, the TGI (RXF 393 renal) was 3.17 µM and the GI50 (MALME-3M melanoma) was 0.724 µM. For the same molecule, the TGI (MALME-3M melanoma) was 1.7 µM, the GI50 (HOP-62 NSCLC) was 2.7 µM and the TGI (HOP-62 NSCLC) was 10.9 µM. For the same molecule, the GI50 (CCRF-CEM leukemia) was 1.68 µM, the TGI (CCRF-CEM leukemia) was over 50 µM and the GI50 (OVCAR-3 ovarian) was 1.02 µM. It also gave a TGI (OVCAR-3 ovarian) of 1.94 µM, a GI50 (DU-145 prostate) of 1.22 µM and a TGI (DU-145 prostate) of 3.27 µM. The GI50 (HOP-92 NSCLC) was 1.25 µM, the TGI (HOP-92 NSCLC) was 5.78 µM and the GI50 (KM12 colon) was 7.47 µM. It also gave a TGI (KM12 colon) of over 50 µM, a GI50 (HCT-116 colon) of 1.55 µM and a TGI (HCT-116 colon) of 5.34 µM. It also gave a GI50 (MDA-MB-435) of 2.07 µM, a TGI (MDA-MB-435) of 8.26 µM and a GI50 (IGROV1 ovarian) of 2.41 µM. For the same molecule, the TGI (IGROV1 ovarian) was 11.2 µM, the GI50 (NCI-H226 lung) was 6.68 µM and the TGI (NCI-H226 lung) was 20.5 µM. The GI50 (MCF7 breast) was 1.43 µM, the TGI (MCF7 breast) was 5.89 µM and the GI50 (SK-MEL-28 melanoma) was 1.54 µM. For the same molecule, the TGI (SK-MEL-28 melanoma) was 6.34 µM, the GI50 (UO-31 renal) was 1.01 µM and the TGI (UO-31 renal) was 2.94 µM. It also gave a GI50 (NCI-H23 lung) of 2.01 µM, a TGI (NCI-H23 lung) of 8.73 µM and a GI50 (NCI/ADR-RES ovarian) of 1.29 µM. For the same molecule, the TGI (NCI/ADR-RES ovarian) was 4.68 µM, the GI50 (T-47D breast) was 1.38 µM and the TGI (T-47D breast) was 5.41 µM. The GI50 (SN12C renal) was 1.3 µM, the TGI (SN12C renal) was 3.9 µM and the GI50 (CAKI-1 renal) was 2.42 µM. It also gave a TGI (CAKI-1 renal) of 9.61 µM, a GI50 (SNB-75 CNS) of 1.04 µM and a TGI (SNB-75 CNS) of 4.48 µM. The GI50 (SF-295 CNS) was 5.11 µM, the TGI (SF-295 CNS) was 12.5 µM and the GI50 (SK-OV-3 ovarian) was 7.3 µM. The TGI (SK-OV-3 ovarian) was 15.7 µM.
